Source: patent US20240059703A1 (AMGEN INC., priority 2021, published 2024)

Key:
[1] = tested on: A549 (human lung carcinoma) cells; test: Cell Viability Assay (CellTiter-Glo), A549; assay type: cell-based; conditions: Homo sapiens, A549, 72 h
How it was run: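 Luminescent ATP read-out (CellTiter-Glo) after 72 h compound treatment of cells seeded overnight at 1.67E+04 cells/mL in RPMI 1640, 10% FBS; signal relative to DMSO, IC50 by 4-parameter logistic model.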

KRAS G12C = KRAS G12C (Homo sapiens (Human), UniProt P01116, C118A/G12C); test: 2 h coupled exchange assay; assay type: biochemical; conditions: Avg 2 h Coupled exchange IC50, 2 h compound pre-incubation, SOS-mediated nucleotide exchange
Protocol: The term “2 h coupled exchange assay” or “20 h coupled exchange assay” as used herein refers to the assay described in the Section entitled “BIOLOGICAL EVALUATION.”

[2] = tested on: MIA PaCa-2 (human pancreatic carcinoma) cells; test: Cell Viability Assay (CellTiter-Glo), MIA PaCa-2; assay type: cell-based; conditions: Homo sapiens, MIA PaCa-2, 72 h
Protocol: Serially-diluted compound or DMSO was added to the cells, and plates were incubated at 37° C., 5% CO2 for 72 h. Cell viability was measured using a CellTiter-Glo® Luminescent Cell Viability Assay kit (Promega) according to the manufacturer's protocol. The luminescence signal of treated samples was normalized to DMSO control, and data were analyzed using a 4-parameter logistic model to calculate IC50 values.

KRAS G12C, sequence (P01116 other isoform, or with tags, fused parts or gaps G12C/C118A): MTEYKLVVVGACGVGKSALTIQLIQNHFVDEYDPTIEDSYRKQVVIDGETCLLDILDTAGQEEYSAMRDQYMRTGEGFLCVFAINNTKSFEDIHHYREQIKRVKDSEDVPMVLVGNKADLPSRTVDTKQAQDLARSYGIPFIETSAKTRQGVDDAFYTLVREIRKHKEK

SMILES	IC50 [1] [nM]	IC50 (KRAS G12C) [nM]	IC50 [2] [nM]
C=CC(=O)N1CC2(CCN(c3nc4c(c(-c5c(C)ccc6[nH]ncc56)c3C#N)CC(C)(C)C4)C2C)C1 [Example 13-52, 6,6-dimethyl-4-(5-methyl-1H-indazol-4-yl)-2-((5R)-5-methyl-2-(2-propenoyl)-2,6-diazaspiro[3.4]octan-6-yl)-6,7-dihydro-5H-cyclopenta[b]pyridine-3-carbonitrile|6,6-dimethyl-4-(5-methyl-1H-indazol-4-yl)-2-((5S)-5-methyl-2-(2-propenoyl)-2,6-diazaspiro[3.4]octan-6-yl)-6,7-dihydro-5H-cyclopenta[b]pyridine-3-carbonitrile]	> 5000	43	231
C=CC(=O)N1CC2(CCN(c3nc4c(c(-c5c(C)ccc6[nH]ncc56)c3C#N)C3CC3C4)C2)C1 (stereo not drawn) [Example 13-82]	> 5000	66	462
C=CC(=O)N1CC2(CCN(c3nc4c(c(-c5c(C)ccc6[nH]ncc56)c3C#N)CC(C3CC3)C4)C2)C1 [Example 13-83, (6R)-6-cyclopropyl-4-(5-methyl-1H-indazol-4-yl)-2-(2-(2-propenoyl)-2,6-diazaspiro[3.4]octan-6-yl)-6,7-dihydro-5H-cyclopenta[b]pyridine-3-carbonitrile|(6S)-6-cyclopropyl-4-(5-methyl-1H-indazol-4-yl)-2-(2-(2-propenoyl)-2,6-diazaspiro[3.4]octan-6-yl)-6,7-dihydro-5H-cyclopenta[b]pyridine-3-carbonitrile]	> 5000	86	> 5000
C=CC(=O)N1CC2(CCN(c3nc4c(c(-c5c(C)ccc6[nH]ncc56)c3C#N)C3C(C4)C3(C)C)C2)C1 (stereo not drawn) [Example 13-84]	> 5000	108	479
C=CC(=O)N1CC2(CCN(c3nc4c(c(-c5c(C)c(C)cc6cnn(C)c56)c3C#N)CCC(C)(C)C4)C2)C1 [Example 13-89, 7,7-dimethyl-2-(2-(2-propenoyl)-2,6-diazaspiro[3.4]octan-6-yl)-4-(1,5,6-trimethyl-1H-indazol-7-yl)-5,6,7,8-tetrahydro-3-quinolinecarbonitrile]	> 5000	35	101
C=CC(=O)N1CC2(CCN(c3nc4c(c(-c5c(C)c(C)cc6cnn(C)c56)c3C#N)COC(C)(C)C4)C2)C1 [Example 13-90, 7,7-dimethyl-2-(2-(2-propenoyl)-2,6-diazaspiro[3.4]octan-6-yl)-4-(1,5,6-trimethyl-1H-indazol-7-yl)-7,8-dihydro-5H-pyrano[4,3-b]pyridine-3-carbonitrile]	> 5000	27	24
C=CC(=O)N1CC2(CCN(c3nc4c(c(-c5c(C)ccc6[nH]ncc56)c3C#N)C[C@H]3C[C@@H]4C3(C)C)C2)C1 [Example 13-93, (6R,8R)-2-(2-acryloyl-2,6-diazaspiro[3.4]octan-6-yl)-7,7-dimethyl-4-(5-methyl-1H-indazol-4-yl)-5,6,7,8-tetrahydro-6,8-methanoquinoline-3-carbonitrile]	> 5000	53	13
C=CC(=O)N1CC2(CCN(c3nc4c(c(-c5c(C)ccc6[nH]ncc56)c3C#N)C[C@H]3C[C@@H]4C3(C)C)C2C)C1 (stereo partly drawn) [Example 13-94, (1R,9R)-10,10-dimethyl-6-(5-methyl-1H-indazol-4-yl)-4-((5R)-5-methyl-2-(2-propenoyl)-2,6-diazaspior[3.4]octan-6-yl)-3-azatricyclo[7.1.1.0^2,7]undeca-2,4,6-triene-5-carbonitrile|(1R,9R)-10,10-dimethyl-6-(5-methyl-1H-indazol-4-yl)-4-((5S)-5-methyl-2-(2-propenoyl)-2,6-diazaspiro[3.4]octan-6-yl)-3-azatricyclo[7.1.1.0^2,7]undeca-2,4,6-triene-5-carbonitrile]	> 5000	51	42
C=CC(=O)N1CC2(CCN(c3nc4c(c(-c5c(C)ccc6[nH]ncc56)c3C#N)COC(C)(C)C4)C2)C1 [Example 13-95, 2-(2-acryloyl-2,6-diazaspiro[3.4]octan-6-yl)-7,7-dimethyl-4-(5-methyl-1H-indazol-4-yl)-7,8-dihydro-5H-pyrano[4,3-b]pyridine-3-carbonitrile]	> 5000	34	92
C=CC(=O)N1CC2(CCN(c3nc4c(c(-c5c(C)ccc6[nH]ncc56)c3C#N)CCC4(C)C)C2)C1 [Example 13-97, 2-(2-acryloyl-2,6-diazaspiro[3.4]octan-6-yl)-7,7-dimethyl-4-(5-methyl-1H-indazol-4-yl)-6,7-dihydro-5H-cyclopenta[b]pyridine-3-carbonitrile]	> 5000	46	423
C=CC(=O)N1CC2(CCN(c3nc4c(c(-c5c(C)ccc6[nH]ncc56)c3C#N)COC(C(F)(F)F)C4)C2)C1 (stereo not drawn) [Example 13-99]	> 5000	180	1430
C=CC(=O)N1CC2(CCN(c3nc4c(c(-c5c(C)ccc6[nH]ncc56)c3C#N)COC4(C)C)C2)C1 [Example 13-100, 2-(2-acryloyl-2,6-diazaspiro[3.4]octan-6-yl)-7,7-dimethyl-4-(5-methyl-1H-indazol-4-yl)-5,7-dihydrofuro[3,4-b]pyridine-3-carbonitrile]	> 5000	124	947
C=CC(=O)N1CC2(CCN(c3nc4c(c(-c5cc(O)cc6ccccc56)c3C#N)C[C@H]3C[C@@H]4C3(C)C)C2)C1 [Example 13-108, (1R,9R)-6-(3-hydroxy-1-naphthalenyl)-10,10-dimethyl-4-(2-(2-propenoyl)-2,6-diazaspiro[3.4]octan-6-yl)-3-azatricyclo[7.1.1.0^2,7]undeca-2,4,6-triene-5-carbonitrile]	2910	24	63
C=CC(=O)N1CC2(CCN(c3nc4c(c(-c5c(C)ccc6cnn(C)c56)c3C#N)C[C@H]3C[C@@H]4C3)C2)C1 [Example 13-110, (1S,9S)-6-(1,6-dimethyl-1H-indazol-7-yl)-4-(2-(2-propenoyl)-2,6-diazaspiro[3.4]octan-6-yl)-3-azatricyclo[7.1.1.0^2,7]undeca-2,4,6-triene-5-carbonitrile]	> 5000	73	524

Now from value to compound:

IC50 [1] [nM]	IC50 (KRAS G12C) [nM]	IC50 [2] [nM]	SMILES
> 5000	95	287	C=CC(=O)N1CC2(CCN(c3nc4c(c(-c5c(C)ccc6[nH]ncc56)c3C#N)COC3(CCOC3)C4)C2)C1 [Example 13-51, (3R)-4′-(5-methyl-1H-indazol-4-yl)-2′-(2-(2-propenoyl)-2,6-diazaspiro[3.4]octan-6-yl)-4,5,5′,8′-tetrahydrospiro[furan-3,7′-pyrano[4,3-b]pyridine]-3′-carbonitrile|(3S)-4′-(5-methyl-1H-indazol-4-yl)-2′-(2-(2-propenoyl)-2,6-diazaspiro[3.4]octan-6-yl)-4,5,5′,8′-tetrahydrospiro[furan-3,7′-pyrano[4,3-b]pyridine]-3′-carbonitrile]
> 5000	74	472	C=CC(=O)N1CC2(CCN(c3nc4c(c(-c5cc(O)cc6ccccc56)c3C#N)CC(C)(C)C4)C2)C1 [Example 13-65, 4-(3-hydroxy-1-naphthalenyl)-6,6-dimethyl-2-(2-(2-propenoyl)-2,6-diazaspiro[3.4]octan-6-yl)-6,7-dihydro-5H-cyclopenta[b]pyridine-3-carbonitirle]
> 5000	98	319	C=CC(=O)N1CC2(CCN(c3nc4c(c(-c5c(C)ccc6[nH]ncc56)c3C#N)CC3CC43)C2)C1 (stereo not drawn) [Example 13-81]
> 5000	325	> 5000	C=CC(=O)N1CC2(CCN(c3nc4c(c(-c5c(C)ccc6[nH]ncc56)c3C#N)CCCC4(F)F)C2)C1 [Example 13-96, 2-(2-acryloyl-2,6-diazaspiro[3.4]octan-6-yl)-8,8-difluoro-4-(5-methyl-1H-indazol-4-yl)-5,6,7,8-tetrahydroquinoline-3-carbonitrile]
> 5000	51	103	C=CC(=O)N1CC2(CCN(c3nc4c(c(-c5c(C)ccc6[nH]ncc56)c3C#N)COC3(CCC3)C4)C2)C1 [Example 13-98, 2′-(2-acryloyl-2,6-diazaspiro[3.4]octan-6-yl)-4′-(5-methyl-1H-indazol-4-yl)-5′,8′-dihydrospiro[cyclobutane-1,7′-pyrano[4,3-b]pyridine]-3′-carbonitrile]
> 5000	102	1370	C=CC(=O)N1CC2(CCN(c3nc4c(c(-c5c(C)ccc6[nH]ncc56)c3C#N)CCC43CC3)C2)C1 [Example 13-101, 2-(2-acryloyl-2,6-diazaspiro[3.4]octan-6-yl)-4-(5-methyl-1H-indazol-4-yl)-5,6-dihydrospiro[cyclopenta[b]pyridine-7,1′-cyclopropane]-3-carbonitrile]
> 5000	97	1340	C=CC(=O)N1CC2(CCN(c3nc4c(c(-c5c(C)ccc6cnn(C)c56)c3C#N)C[C@H]3C[C@@H]4C3(C)C)C2)C1 [Example 13-104, (1R,9R)-6-(1,6-dimethyl-1H-indazol-7-yl)-10,10-dimethyl-4-(2-(2-propenoyl)-2,6-diazaspiro[3.4]octan-6-yl)-3-azatricyclo[7.1.1.0^2,7]undeca-2,4,6-triene-5-carbonitrile]
